Numbers after ± are expanded uncertainties.
Legend:
[1] = Molar enthalpy of transition or fusion; conditions: Crystal; DSC
[2] = Crystal; DTA

- Molar enthalpy of transition or fusion [1]: 25.9 ± 0.598 kcal/mol
- Normal melting temperature [2]: 82.8 ± 1.1 °C
Compound: CCCCCCCCCCCCCCCCCCCCCCCCCCCCO [1-octacosanol]

From the NIST ThermoML archive (doi:10.1016/j.jct.2017.02.025)
